Publication PMC6829886, “Inhibition of Non-Small Cell Lung Cancer Cells by Oxy210, an Oxysterol-Derivative that Antagonizes TGFβ and Hedgehog Signaling” (Cells, 2019)
“And” between values parts separate entries of the source, which are not always exact repeats. Identical values can stand only once. Like-named read-outs stand apart in the source and are kept apart here.

Experiments:
[1] = Single oral dose pharmacokinetic study in mice; format: in vivo; conditions: mouse, plasma, oral gavage, single dose 50 mg/kg
Description: In an initial assessment of drug-like properties of Oxy210, we performed a pharmacokinetic (PK) study in mice. Oxy210, formulated in 3% DMSO + 7% Ethanol + 5% PEG400 + 85% corn oil, was administered to balb/c mice by oral gavage as a single dose of 50 mg/kg. Plasma samples were taken at 10 min, 30 min, 1 h, 2 h, 4 h, and 8h, followed by LC/MS analysis. […] Additional PK studies in mice were performed with Oxy210 in a dose escalation study with repeated once daily oral dosing (50 mg/kg, 200 mg/kg and 400 mg/kg) for 7 days.
Figure 13 Drug-like properties of Oxy210. (a) A single dose of Oxy210 at 50 mg/kg, formulated in 3% DMSO + 7% Ethanol + 5% PEG400 + 85% corn oil, was administered to balb/c mice by oral gavage. Plasma samples were taken at 10 min, 30 min, 1h, 2h, 4h, 6h, and 8h, followed by LC/MS analysis of the plasma. (b) Evolution of Oxy210 and Oxy186 from parent compound Oxy16 and their drug-like properties.

A549 cells = assay: Cell counting (proliferation) assay in A549 cells; format: cell-based, human; design: IC10 Estimate, dataset 2 - Fig 7a, log 10 scale Y: unit not given here; conditions: for IC50 / IC90: Homo sapiens
Description: A549 and H2030 cells cultured in RPMI 1640 containing 5% FBS in 12 well-plates at 20% confluence were treated with Oxy210 for 6 days and then trypsinized, spun down and resuspended in fresh medium. For the Carboplatin (CP) and Oxy210 co-treatment experiments, A549 cells cultured in RPMI 1640 containing 2% FBS in 12 well-plates at 20% confluence were treated with CP at different concentrations in the presence or absence of Oxy210 for 6 days. For the TGFβ-induced drug resistance assay, A549 cells cultured in RPMI 1640 containing 2% FBS in 12 well-plates at 10% confluence were pre-treated with TGFβ1 alone or together with Oxy210 for 3 days, and then treated with 20 μM CP for 4 days. An aliquot of cell suspension was applied to a hemocytometer and the cells were then counted under a light microscope.
Statistical analyses were performed using the StatView 5 program (SAS Institute, Cary, NC, USA). All p values were calculated using ANOVA and Fisher’s projected least significant difference (PLSD) significance test. A value of p < 0.05 was considered significant. The IC 50 dose-response curves shown in Figure 4b and Figure 7a–c were modeled using a five-parameter logistic model. This model allows for asymmetric curves and automatically estimates the mean maximum and minimum response. Based on this model, IC 50 values were estimated corresponding to the dose halfway between min and max response. Models of dose versus response and dose versus log response were also evaluated (see Supplementary Materials). The R square statistic was computed as a measure of model fit.
Figure 7 Inhibition of NSCLC cell proliferation by Oxy210. A549 (a), (c) and H2030 (b) cells were treated with the test agents as indicated in RPMI 1640 containing 5% FBS for 5 days and then were trypsinized and counted as described in Methods and Materials section. Data from a representative experiment are reported as the mean of triplicate determinations ± SD (* p < 0.05 vs. control; ** p < 0.01 vs. control).

Human TGFBR1 = target: T1, Human TGFBR1 (Homo sapiens, UniProt P36897); assay: TGFβ receptor I kinase inhibition assay (Eurofins); format: biochemical; conditions: vs. positive controls Cdk1/2 Inhibitor III and PKR Inhibitor
T1 construct: Human TGFBR1 (amino acid 200 to end); purchased Eurofins
T1 sequence (P36897 200-503 limits assumed): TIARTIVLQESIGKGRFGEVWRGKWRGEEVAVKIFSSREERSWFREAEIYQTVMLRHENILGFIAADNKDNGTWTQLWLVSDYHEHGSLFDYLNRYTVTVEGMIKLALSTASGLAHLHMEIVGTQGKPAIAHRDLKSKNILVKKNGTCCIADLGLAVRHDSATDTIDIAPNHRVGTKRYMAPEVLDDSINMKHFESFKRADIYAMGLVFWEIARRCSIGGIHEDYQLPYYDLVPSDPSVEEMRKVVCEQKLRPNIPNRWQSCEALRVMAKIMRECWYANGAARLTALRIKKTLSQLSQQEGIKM
Description: Effect of Oxy210 on inhibition of TGFβ receptors I and II kinase activity was assessed by Eurofins (Celle-L’Evescault, France). TGFBR1 (h): Human TGFBR1 (amino acid 200 to end) was incubated with 8 mM MOPS pH 7.0, 0.2 mM EDTA, 1 mM MnCl2, 2 mg/mL casein, 10 mM Magnesium acetate and […] (specific activity and concentration as required). The reaction was initiated by the addition of the Mg/ATP mix. After incubation for 40 min at room temperature, the reaction was stopped by the addition of phosphoric acid to a concentration of 0.5%. 10 μL of the reaction was then spotted onto a P30 filtermat and washed four times for 4 min in 0.425% phosphoric acid and once in methanol prior to drying and scintillation counting. TGFBR2 (h): Human TGFBR2 (amino acid 188-end) was incubated with 20 mM Tris/HCl pH 8.5, 0.2 mM EDTA, 0.33 mg/mL MBP, 10 mM Magnesium acetate and [9-33P-ATP] (specific activity and concentration as required). The reaction was initiated by the addition of the Mg/ATP mix. After incubation for 120 min at room temperature, the reaction was stopped by the addition of phosphoric acid to a concentration of 0.5%. […]
Figure 11 Inhibition of TGFβ-induced Smad2/3 phosphorylation and transcriptional activity. […] Luciferase activity was measured and normalized to the Renilla luciferase activity. […]

For `C[C@]12CC[C@H]3[C@@H](CC=C4C[C@@H](O)CC[C@@]43C)[C@@H]1CC[C@@H]2[C@](C)(O)CCc1cccnc1` [Oxy210, (3S,8S,9S,10R,13S,14S,17S)-17-((R)-2-hydroxy-4-(pyridin-3-yl)butan-2-yl)-10,13-dimethyl-2,3,4,7,8,9,10,11,12,13,14,15,16,17-tetradecahydro-1H-cyclopenta[a]phenanthren-3-ol], which MRT ([1]; balb/c, po, 50 mg/kg, read-out: mean residence time (MRT)) is on record?
The MRT was 8 h.

What about the AUC(0-inf) ([1]; balb/c mice) of the same molecule?
Its AUC(0-inf) is 9210 ng·h/mL.

What about the Tmax ([1]; balb/c mice) of the same molecule?
Its Tmax is 0.5 h.

What about the Cmax ([1]; balb/c mice) of the same molecule?
Its Cmax is 1970 ng/mL and 4.7 µM.

What about the “fold reduction (left shift) of the IC50 of CP” value (A549 cells; A549 cells, 2 μM Oxy210) of the same molecule?
Its value is “about four-fold”.

What about the “anti-proliferation potential of CP when combined” value (A549 cells; A549 cells, non-cytotoxic concentrations of CP (1 to 10 μM)) of the same molecule?
Its value is “significantly improved”.

What about the “IC10 Estimate, dataset 2 - Fig 7a, log 10 scale Y” value (A549 cells; A549 cells/well, log 10 scale Y) of the same molecule?
The value was 2.61.

And the IC10 Estimate, dataset 2 - Fig 7a, original scale Y (A549 cells; A549 cells/well, original scale Y)?
Its IC10 Estimate, dataset 2 - Fig 7a, original scale Y is 1.92 µM.

What about the IC50 (A549 cells; A549 cells, 5% FBS, ± SE, read-out: IC50, anti-proliferative effect (cell counting)) of the same molecule?
Its IC50 is 2.63 ± 1.01 µM.

And the IC50 (A549 cells; A549 cells/well, log 10 scale Y, read-out: IC 50 Estimate, dataset 2 - Fig 7a, log 10 scale Y (converted))?
Its IC50 is 4.23 µM.

What about the IC90 (A549 cells; A549 cells/well, log 10 scale Y, read-out: IC90 Estimate, dataset 2 - Fig 7a, log 10 scale Y (converted)) of the same molecule?
Its IC90 is 6.87 µM.

And the IC90 (A549 cells; A549 cells/well, original scale Y, read-out: IC90 Estimate, dataset 2 - Fig 7a, original scale Y)?
The IC90 was 4.18 µM.

What about the “inhibitory activity on TβRI in functional kinase assay” value (Human TGFBR1) of the same molecule?
Its value is “did not display significant inhibitory activity”.
